Results published in patent publication US10047051B2, “Substituted pyridines and method of use” (AbbVie S.á{acute over (.)}r.l., priority 2015, dated 2018).

What was measured:
Format in all cases: cell-based
CFTR ΔF508 mutant = target: T1, CFTR ΔF508 mutant (Homo sapiens, UniProt P13569, DEL508-508); assay: YFP-halide influx assay for the CFTR-ΔF508 mutation (CFBE41o- cells); details: forskolin 10.67 μM; for EC50: from (1−F/F0) vs concentration plot
T1 construct: expressed in transfected cells; host or cells: CFBE41o- cells, adenoviral transduction
Summary of the method: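 CFBE41o- cells transduced with adenovirus expressing CFTR ΔF508 and halide-sensitive YFP H148Q/I152L/F47L, then held 24 h at 27° C or with a CFTR modulator 24 h at 37° C. Iodide-induced quench recorded 2 min; EC50 from (1−F/F0) at 36 s versus concentration.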

CFTR-G178R = target: T2, CFTR-G178R (Homo sapiens, UniProt P13569, G178R); assay: YFP-halide influx assay for the CFTR-G178R
T2 construct: expressed in transfected cells
Summary of the method: (§1)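 HEK293 cells reverse-transfected with a CFTR mutant and YFP H148Q/I152L/F47L halide sensor, expressed 24 h at 37° C. Fluorescence quenching followed for 7 s after I⁻ injection; activity expressed as 1−F/F0, with EC50 fitted from 1−F/F0 versus compound concentration.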

CFTR-S549N = target: T3, CFTR-S549N (Homo sapiens, UniProt P13569, S549N); assay: YFP-halide influx assay for the CFTR-S549N; parameters: % Activation: concentration or dose not given beside the values
T3 construct: expressed in transfected cells
Summary of the method: as §1

CFTR-R117H = target: T4, CFTR-R117H (Homo sapiens, UniProt P13569, R117H); assay: YFP-halide influx assay for the CFTR-R117H
T4 construct: expressed in transfected cells
Summary of the method: as §1

CFTR-G1349D = target: T5, CFTR-G1349D (Homo sapiens, UniProt P13569, G1349D); assay: YFP-halide influx assay for the CFTR-G1349D
T5 construct: expressed in transfected cells
Summary of the method: as §1

CFTR G551D mutant = target: T6, CFTR G551D mutant (Homo sapiens, UniProt P13569, G551D); assay: YFP-halide influx assay for the CFTR-G551D mutation (HEK293 cells); details: forskolin 10.67 μM
T6 construct: expressed in transfected cells; host or cells: HEK293 cells, reverse transfection with plasmids
Summary of the method: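 HEK293 cells reverse-transfected with CFTR G551D and halide-sensitive YFP (H148Q/I152L/F47L), expressed 24 h at 37 °C. YFP fluorescence quenching recorded for 7 s after I⁻ injection. Response = 1−F/F0; EC50 derived from 1−F/F0 vs compound concentration.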

CFTR G551D/ΔF508 = target: T7, CFTR G551D/ΔF508 (Homo sapiens, UniProt P13569, G551D); assay: TECC assay, primary bronchial epithelial cells, CFTR G551D/ΔF508; details: primary bronchial epithelial cells heterozygous G551D/ΔF508, acute mode, increase in Isc after forskolin
T7 construct: host or cells: primary human bronchial epithelial cells from CF patients heterozygous G551D/ΔF508, no corrector pre-treatment
Procedure: (§2) The TECC (Tranepithelial Clamp Circuit, EP-design) assay measures the functionality of the cystic fibrosis Transmembrane Conductance regulator (CFTR) by measuring the short circuit current (Isc) generated over the basolateral and apical membrane of lung epithelial cells. In TECC the transepithelial potential PD and transepithelial resistance (Rt) are measured in an open circuit and transformed to Isc using Ohm's law. 24 Wells can be measured simultaneously allowing a higher throughput compared to Ussing chambers.
(§3) For this purpose, bronchial epithelial cells isolated from CF patients homozygous for the CFTR ΔF508 mutation (hAEC-CF, Epithelix) are plated on type IV collagen-coated Transwell® supports (Costar). Human airway epithelia are generated by provision of an air-liquid interface for 21 days to form well-differentiated polarized cultures that resemble in vivo pseudo-stratified ciliated epithelium (Fulcher, M. L., Gabriel, S., Burns, K. A., Yankaskas, J. R., Randell, S. H., 2005. Well-differentiated human airway epithelial cell cultures. Methods Mol. Med. 107, 183-206). In the case of the homozygous ΔF508 CFTR samples, the differentiated cells are treated with 3 μM VX809 (2626 South Loop West, Suite 225, Houston, Tex. 77054 USA, Cat n# S1565) to allow sufficient expression of properly folded CFTR protein on the membrane (48 hours basolateral treatment and 24 hours apical treatment), prior to electrophysiological recordings. For heterozygous G551D/ΔF508, differentiated cells are used as such for the recordings.
(§4) Information on the compounds can be retrieved on the homozygous ΔF508 CFTR samples looking at increased CFTR activity when compounds are added in an acute mode or in a chronic mode. On G551D/ΔF508 CFTR heterozygous samples compounds are added in an acute mode to the differentiated cells.
(§5) For the acute mode, for electrophysiological recording, the human airway epithelia are mounted in the TECC heating plate for electrophysiological measurement and kept at 37° C. The epithelia are bathed in a NaCl-Ringer solution (120 mM NaCl, 25 mM NaHCO3, 1.2 mM CaCl2, 1.2 mM MgCl2, 0.8 mM KH2PO4, 0.8 mM K2HPO4, pH 7.4, 5 mM glucose) on both the basolateral and apical sides. Apical amiloride is used to inhibit the endogenous ENaC currents while forkolin is applied on both apical and basolateral side to stimulate CFTR. After forskolin triggering, compounds are added on both sides to test their potential for increasing CFTR gating. Measurements are done during a 20 minute timeframe with recordings every 2 minutes. The increase in Isc is used as a measure for the increased CFTR activity, EC50 values can be generated by measuring impact of different concentrations of compound on Isc on primary cells, for this purpose each transwell is treated with a different compound concentration. Inh-172, an inhibitor specific for CFTR, is used to test the specificity of the tested compounds.
When subjected to this protocol, the following values were obtained. The difference between ΔIsc measured as DMSO (baseline), and the ΔIsc measured with the compound tested.

CFTR ΔF508 = target: T8, CFTR ΔF508 (Homo sapiens, UniProt P13569, DEL508-508); assay: TECC assay, primary bronchial epithelial cells, CFTR ΔF508; details: primary bronchial epithelial cells of CF patients homozygous for CFTR ΔF508, treated with 3 μM VX809, increase in Isc after forskolin
T8 construct: host or cells: primary human bronchial epithelial cells from CF patients homozygous for ΔF508, pre-treated with VX809
Procedure: as §2, §3, §4, §5
For the chronic mode, the differentiated cells are treated with 3 μM VX809 (2626 South Loop West, Suite 225, Houston, Tex. 77054 USA, Cat n# S1565) and potentiator compounds at different concentrations (48 hours basolateral treatment and 24 hours apical treatment), prior to electrophysiological recordings. For electrophysiological recording, the human airway epithelia are mounted in the TECC heating plate for electrophysiological measurement and kept at 37° C. The epithelia are bathed in a NaCl-Ringer solution (120 mM NaCl, 25 mM NaHCO3, 1.2 mM CaCl2, 1.2 mM MgCl2, 0.8 mM KH2PO4, 0.8 mM K2HPO4, pH 7.4, 5 mM glucose) on both the basolateral and apical sides. Apical amiloride is used to inhibit the endogenous ENaC currents while forkolin is applied on both apical and basolateral side to stimulate CFTR. Measurements are done during a 20 minute timeframe with recordings every 2 minutes. […]

T2 sequence (P13569 whole entry G178R): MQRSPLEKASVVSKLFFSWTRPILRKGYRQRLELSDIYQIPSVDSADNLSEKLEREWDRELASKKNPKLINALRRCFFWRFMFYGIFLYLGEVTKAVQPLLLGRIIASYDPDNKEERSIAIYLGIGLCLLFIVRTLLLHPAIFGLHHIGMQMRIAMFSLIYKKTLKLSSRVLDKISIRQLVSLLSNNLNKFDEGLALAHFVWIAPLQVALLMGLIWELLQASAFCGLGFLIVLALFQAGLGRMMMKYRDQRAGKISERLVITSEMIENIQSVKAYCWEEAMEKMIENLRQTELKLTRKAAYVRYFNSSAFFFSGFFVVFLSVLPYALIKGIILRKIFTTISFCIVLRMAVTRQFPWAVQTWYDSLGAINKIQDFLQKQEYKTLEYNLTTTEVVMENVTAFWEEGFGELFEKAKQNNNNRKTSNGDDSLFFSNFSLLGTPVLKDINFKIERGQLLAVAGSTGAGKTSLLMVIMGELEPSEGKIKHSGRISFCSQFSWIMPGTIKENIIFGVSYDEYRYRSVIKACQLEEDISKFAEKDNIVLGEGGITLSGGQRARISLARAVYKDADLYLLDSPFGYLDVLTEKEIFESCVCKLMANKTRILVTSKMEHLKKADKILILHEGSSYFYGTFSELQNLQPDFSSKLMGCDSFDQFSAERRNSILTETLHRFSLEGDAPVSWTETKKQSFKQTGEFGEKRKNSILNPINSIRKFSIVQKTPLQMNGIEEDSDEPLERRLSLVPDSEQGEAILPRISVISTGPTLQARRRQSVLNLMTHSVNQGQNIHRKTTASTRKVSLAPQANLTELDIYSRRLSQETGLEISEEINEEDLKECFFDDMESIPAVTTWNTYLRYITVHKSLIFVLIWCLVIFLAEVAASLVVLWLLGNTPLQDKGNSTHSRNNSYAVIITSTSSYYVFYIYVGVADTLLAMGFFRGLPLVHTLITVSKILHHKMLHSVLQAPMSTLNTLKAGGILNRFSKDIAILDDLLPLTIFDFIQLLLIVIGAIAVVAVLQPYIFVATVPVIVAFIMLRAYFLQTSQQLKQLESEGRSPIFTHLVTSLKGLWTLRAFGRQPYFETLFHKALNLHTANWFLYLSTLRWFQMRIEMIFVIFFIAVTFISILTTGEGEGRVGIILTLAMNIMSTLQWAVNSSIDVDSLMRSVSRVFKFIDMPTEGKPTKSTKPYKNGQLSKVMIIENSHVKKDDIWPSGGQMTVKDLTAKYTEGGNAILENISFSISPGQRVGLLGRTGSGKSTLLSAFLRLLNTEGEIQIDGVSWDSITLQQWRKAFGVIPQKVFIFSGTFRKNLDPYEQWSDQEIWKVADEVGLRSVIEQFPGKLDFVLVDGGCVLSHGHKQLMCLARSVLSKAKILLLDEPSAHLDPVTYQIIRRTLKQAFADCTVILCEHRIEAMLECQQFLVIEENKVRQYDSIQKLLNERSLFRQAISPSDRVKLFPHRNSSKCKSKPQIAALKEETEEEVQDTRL
T4 sequence (P13569 whole entry R117H): as the sequence (P13569 whole entry G178R) above, with R117H, R178G counted along it
T3 sequence (P13569 whole entry S549N): as the sequence (P13569 whole entry G178R) above, with R178G, S549N counted along it
T6 sequence (P13569 whole entry G551D): as the sequence (P13569 whole entry G178R) above, with R178G, G551D counted along it
T7 sequence (P13569 whole entry F508del/G551D): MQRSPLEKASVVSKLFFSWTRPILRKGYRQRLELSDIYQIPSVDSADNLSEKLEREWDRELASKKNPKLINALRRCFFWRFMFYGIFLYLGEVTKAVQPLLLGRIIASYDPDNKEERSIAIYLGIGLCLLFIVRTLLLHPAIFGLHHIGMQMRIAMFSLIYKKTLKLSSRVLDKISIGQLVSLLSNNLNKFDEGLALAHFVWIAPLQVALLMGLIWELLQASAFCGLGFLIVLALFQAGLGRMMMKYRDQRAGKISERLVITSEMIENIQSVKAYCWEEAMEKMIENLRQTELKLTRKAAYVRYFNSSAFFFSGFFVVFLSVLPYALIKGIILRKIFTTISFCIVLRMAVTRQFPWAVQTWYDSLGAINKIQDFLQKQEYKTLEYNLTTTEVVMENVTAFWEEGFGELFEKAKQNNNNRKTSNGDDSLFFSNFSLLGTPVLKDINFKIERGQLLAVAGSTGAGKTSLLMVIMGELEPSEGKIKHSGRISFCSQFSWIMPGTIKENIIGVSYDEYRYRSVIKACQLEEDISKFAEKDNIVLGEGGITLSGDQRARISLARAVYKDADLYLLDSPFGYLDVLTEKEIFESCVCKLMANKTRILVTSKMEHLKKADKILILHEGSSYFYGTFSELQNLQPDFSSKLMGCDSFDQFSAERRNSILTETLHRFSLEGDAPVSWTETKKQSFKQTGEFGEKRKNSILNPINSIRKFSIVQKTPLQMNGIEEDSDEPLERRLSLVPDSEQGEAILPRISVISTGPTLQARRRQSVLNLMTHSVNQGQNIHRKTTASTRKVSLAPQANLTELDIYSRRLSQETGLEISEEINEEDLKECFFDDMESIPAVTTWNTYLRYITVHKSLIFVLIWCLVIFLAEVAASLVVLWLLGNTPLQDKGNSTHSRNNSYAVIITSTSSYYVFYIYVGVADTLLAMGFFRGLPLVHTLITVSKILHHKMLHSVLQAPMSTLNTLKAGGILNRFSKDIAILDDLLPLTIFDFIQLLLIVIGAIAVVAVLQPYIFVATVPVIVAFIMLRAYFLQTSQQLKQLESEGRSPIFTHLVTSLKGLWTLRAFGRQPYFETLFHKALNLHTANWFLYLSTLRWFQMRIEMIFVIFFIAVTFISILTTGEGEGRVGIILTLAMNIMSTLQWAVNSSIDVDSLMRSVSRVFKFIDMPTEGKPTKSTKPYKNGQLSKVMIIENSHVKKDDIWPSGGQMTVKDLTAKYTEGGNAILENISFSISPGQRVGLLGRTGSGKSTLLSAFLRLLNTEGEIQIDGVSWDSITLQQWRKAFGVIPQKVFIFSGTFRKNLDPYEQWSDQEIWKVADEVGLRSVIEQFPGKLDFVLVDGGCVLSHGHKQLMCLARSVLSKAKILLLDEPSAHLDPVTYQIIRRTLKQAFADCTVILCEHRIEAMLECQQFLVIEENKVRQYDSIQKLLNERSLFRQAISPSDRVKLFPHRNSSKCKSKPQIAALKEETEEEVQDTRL
T1 sequence (P13569 with tags, fused parts or gaps DEL508-508): as the sequence (P13569 whole entry F508del/G551D) above, with D550G counted along it
T5 sequence (P13569 whole entry G1349D): as the sequence (P13569 whole entry G178R) above, with R178G, G1349D counted along it
T8 sequence (P13569 with tags, fused parts or gaps DEL508-508): as the sequence (P13569 whole entry F508del/G551D) above, with D550G counted along it

Row | SMILES | % Activation (CFTR ΔF508 mutant) [%] | EC50 (CFTR ΔF508 mutant) [nM] | % Activation (CFTR-G178R) [%] | EC50 (CFTR-G178R) [nM] | % Activation (CFTR-S549N) [%] | EC50 (CFTR-S549N) [nM] | % Activation (CFTR-R117H) [%] | EC50 (CFTR-R117H) [nM] | % Activation (CFTR-G1349D) [%] | EC50 (CFTR-G1349D) [nM] | % Activation (CFTR G551D mutant) [%] | EC50 (CFTR G551D mutant) [nM] | EC50 (CFTR G551D/ΔF508) [nM] | EC50 (CFTR ΔF508) [nM]
1 | CC(C)OCC(O)CNC(=O)c1ncc(S(=O)(=O)c2ccc(C(F)(F)F)cc2)cc1N (stereo not drawn) [Compound 92, 3-amino-N-[2-hydroxy-3-(propan-2-yloxy)propyl]-5-{[4-(trifluoromethyl)phenyl]sulfonyl}pyridine-2-carboxamide] | 118.5 | 7.2 | 104.9 | 145 | 98.96 | 131 | 94.77 | 97.7 | 91.24 | 30.6 | 79.0 | 210 | 144 | –
2 | Nc1cc(S(=O)(=O)c2ccc(OC(F)(F)F)cc2)cnc1C(=O)NCCC(O)C(F)(F)F (stereo not drawn) [Compound 52, 3-amino-N-(4,4,4-trifluoro-3-hydroxybutyl)-5-{[4-(trifluoromethoxy)phenyl]sulfonyl}pyridine-2-carboxamide] | 96.6 | 8 | – | – | – | – | – | – | – | – | 48.8 | 458 | 461 | 38.3
3 | Nc1cc(S(=O)(=O)c2ccccc2OC(F)(F)F)cnc1C(=O)N1CC(O)(C(F)(F)F)C1 [Compound 85, (3-amino-5-{[2-(trifluoromethoxy)phenyl]sulfonyl}pyridin-2-yl)[3-hydroxy-3-(trifluoromethyl)azetidin-1-yl]methanone] | 110.5 | 1 | 77.69 | 3.29 | 104.8 | 3.29 | 103 | 3.83 | 90.89 | 2.73 | 51.7 | 28.9 | 9.5 | –
4 | Nc1cc(S(=O)(=O)c2ccc(OC(F)(F)F)cc2)cnc1C(=O)NCC1CCCO1 (stereo not drawn) [Compound 7, 3-amino-N-(tetrahydrofuran-2-ylmethyl)-5-{[4-(trifluoromethoxy)phenyl]sulfonyl}pyridine-2-carboxamide] | 103.5 | 69.1 | – | – | – | – | 82.7 | 479 | 63.0 | 549 | 73.5 | 723 | 7720 | –
5 | Nc1cc(S(=O)(=O)N2CCC(C(F)(F)F)CC2)cnc1C(=O)NCC(O)C(F)(F)F (stereo not drawn) [Compound 95, 3-amino-N-(3,3,3-trifluoro-2-hydroxypropyl)-5-{[4-(trifluoromethyl)piperidin-1-yl]sulfonyl}pyridine-2-carboxamide] | 104.0 | 5.7 | 80.8 | 226 | 65.61 | 86.4 | 88.62 | 138 | 71.97 | 75.4 | 54.2 | 300 | 487 | –
